Reference: patent US9415055B2, “Cyclic amines” (H. Lundbeck A/S, priority 2012, dated 2016)

Target: P2X7 receptor (Homo sapiens (Human), UniProt Q99572)
Experiment: P2X7 FLIPR assay: antagonism of BzATP response in 293 HEK cells stably expressing P2X7 receptor
Format: cell-based
Details: FLIPR fluorescence (Fluo-4), agonist BzATP, 293 HEK cells stably transfected with P2X7 receptor
Method in brief: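 Antagonist IC50 derived from FLIPR Tetra Fluo-4 calcium signal evoked by BzATP. Compound pre-incubation was 30 min at room temperature on P2X7-expressing HEK293 cells, seeded 24 h before in low-serum medium and dye-loaded 30 min at 37 °C then 30 min at RT.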

Chain of P2X7 receptor (Q99572 whole entry): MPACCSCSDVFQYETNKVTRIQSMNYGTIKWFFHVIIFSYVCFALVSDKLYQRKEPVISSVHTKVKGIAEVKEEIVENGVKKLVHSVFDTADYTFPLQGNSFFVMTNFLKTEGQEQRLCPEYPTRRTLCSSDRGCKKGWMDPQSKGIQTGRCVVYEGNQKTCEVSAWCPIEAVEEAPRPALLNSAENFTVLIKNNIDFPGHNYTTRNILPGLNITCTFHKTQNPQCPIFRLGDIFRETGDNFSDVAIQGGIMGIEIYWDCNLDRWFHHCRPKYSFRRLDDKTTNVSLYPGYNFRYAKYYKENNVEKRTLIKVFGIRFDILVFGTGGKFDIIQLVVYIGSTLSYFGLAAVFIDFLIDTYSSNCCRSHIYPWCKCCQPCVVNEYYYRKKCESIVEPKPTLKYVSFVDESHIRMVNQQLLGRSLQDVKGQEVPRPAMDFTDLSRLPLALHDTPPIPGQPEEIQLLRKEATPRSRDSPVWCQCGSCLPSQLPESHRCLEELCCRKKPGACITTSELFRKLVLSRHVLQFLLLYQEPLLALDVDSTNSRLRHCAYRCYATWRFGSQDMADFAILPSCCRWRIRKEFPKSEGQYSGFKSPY

Row | Structure (SMILES) | IC50
1 | O=C(NCC(c1cnc(C(F)(F)F)nc1)N1CCC(F)(F)CC1)c1c(Cl)cccc1Cl (single isomer, unassigned; (-)) [(−)2,6-dichloro-N-[2-(4,4-difluoro-1-piperidyl)-2-[2-(triflu] [(−)2,6-dichloro-N-(2-(4,4-difluoropiperidin-1-yl)-2-(2-(trifluoromethyl)pyrimidin-5-yl)ethyl)benzamide] | 6.9 nM
2 | Cc1ncc(C(CNC(=O)c2c(Cl)cccc2Cl)N2CCC(F)CC2)cn1 (single isomer, unassigned; (-)) [(−)2,6-dichloro-N-[2-(4-fluoro-1-piperidyl)-2-(2-methylpyrim] [(−)2,6-dichloro-N-(2-(4-fluoropiperidin-1-yl)-2-(2-methylpyrimidin-5-yl)ethyl)benzamide] | 53 nM
3 | O=C(NCC(c1cnc(C(F)(F)F)nc1)N1CCC(F)CC1)c1c(Cl)cccc1Cl (single isomer, unassigned; (-)) [(−)2,6-dichloro-N-[2-(4-fluoro-1-piperidyl)-2-[2-(trifluorom] [(−)2,6-dichloro-N-(2-(4-fluoropiperidin-1-yl)-2-(2-(trifluoromethyl)pyrimidin-5-yl)ethyl)benzamide] | 15 nM
4 | O=C(NCC(c1ccc(C(F)F)nc1)N1CCC(F)(F)CC1)c1c(Cl)cccc1Cl (single isomer, unassigned; (-)) [(−)2,6-dichloro-N-[2-[6-(difluoromethyl)-3-pyridyl]-2-(4,4-d] [(−)2,6-dichloro-N-(2-(2-(difluoromethyl)pyridin-5-yl)-2-(4,4-difluoropiperidin-1-yl)ethyl)benzamide] | 5.5 nM
5 | O=C(NCC(c1ccc(C(F)(F)F)nc1)N1CCOCC1)c1c(F)cccc1F (single isomer, unassigned; (-)) [(−)2,6-difluoro-N-[2-morpholino-2-[6-(trifluoromethyl)-3-pyr] [(−)2,6-difluoro-N-(2-morpholino-2-(6-(trifluoromethyl)pyridin-3-yl)ethyl)benzamide] | 480 nM
6 | O=C(NCC(c1cnc(C(F)(F)F)nc1)N1CCOCC1)c1ccccc1F (single isomer, unassigned; (-)) [(−)2-Fluoro-N-[2-morpholino-2-[2-(trifluoromethyl)pyrimidin-5-yl]ethyl]benzamide] | 44 nM
7 | Cc1ncc(C(CNC(=O)c2cccc(OC(F)F)c2Cl)N2CCC(F)(F)CC2)cn1 (single isomer, unassigned; (-)) [(−)2-chloro-3-(difluoromethoxy)-N-[2-(4,4-difluoro-1-piperid] [(−)2-chloro-3-(difluoromethoxy)-N-(2-(4,4-difluoropiperidin-1-yl)-2-(2-methylpyrimidin-5-yl)ethyl)benzamide] | 37 nM
8 | COc1cccc(C(=O)NCC(c2cnc(C(F)(F)F)nc2)N2CCOCC2)c1Cl (single isomer, unassigned; (-)) [(−)2-chloro-3-methoxy-N-[2-morpholino-2-[2-(trifluoromethyl)] [(−)2-chloro-3-methoxy-N-(2-morpholino-2-(2-(trifluoromethyl)pyrimidin-5-yl)ethyl)benzamide] | 8.2 nM
9 | CS(=O)(=O)c1ccc(Cl)c(C(=O)NCC(c2ccc(C(F)(F)F)nc2)N2CCOCC2)c1 (single isomer, unassigned; (-)) [(−)2-chloro-5-methylsulfonyl-N-[2-morpholino-2-[6-(trifluoro] [(−)2-chloro-5-(methylsulfonyl)-N-(2-morpholino-2-(6-(trifluoromethyl)pyridin-3-yl)ethyl)benzamide] | 51 nM
10 | O=C(NCC(c1ccc(C(F)(F)F)nc1)N1CCOCC1)c1c(F)cccc1Cl (single isomer, unassigned; (-)) [(−)2-chloro-6-fluoro-N-(2-morpholino-2-(6-(trifluoromethyl)p] [(−)2-chloro-6-fluoro-N-(2-morpholino-2-(6-(trifluoromethyl)pyridin-3-yl)ethyl)benzamide] | 6.1 nM
11 | COc1cccc(C(=O)NCC(c2ccc(F)cc2)N2CCC(F)(F)CC2)c1Cl (single isomer, unassigned; (-)) [(−)2-chloro-N-(2-(4,4-difluoropiperidin-1-yl)-2-(4-fluorophenyl)ethyl)-3-methoxybenzamide] | 2.6 nM
12 | CC(C)S(=O)(=O)c1ccc(Cl)c(C(=O)NCC(c2ccc(Cl)cc2)N2CCOCC2)c1 (single isomer, unassigned; (-)) [(−)2-chloro-N-(2-(4-chlorophenyl)-2-morpholinoethyl)-5-(isopropylsulfonyl)benzamide] | 47 nM
13 | O=C(NCC(c1cnc(C2CC2)nc1)N1CCC(F)(F)CC1)c1c(F)cccc1Cl (single isomer, unassigned; (-)) [(−)2-chloro-N-[2-(2-cyclopropylpyrimidin-5-yl)-2-(4,4-difluo] [(−)2-chloro-6-fluoro-N-(2-(2-cyclopropylpyrimidin-5-yl)-2-(4,4-difluoropiperidin-1-yl)ethyl)benzamide] | 11 nM
14 | O=C(NCC(c1cnc(C2CC2)nc1)N1CCC(F)(F)CC1)c1ccccc1Cl (single isomer, unassigned; (-)) [(−)2-chloro-N-[2-(2-cyclopropylpyrimidin-5-yl)-2-(4,4-difluo] [(−)2-chloro-N-(2-(2-cyclopropylpyrimidin-5-yl)-2-(4,4-difluoropiperidin-1-yl)ethyl)benzamide] | 7.6 nM
15 | Cc1ncc(C(CNC(=O)c2ccccc2Cl)N2CCCCC2)cn1 (single isomer, unassigned; (-)) [(−)2-chloro-N-[2-(2-methylpyrimidin-5-yl)-2-(1-piperidyl)eth] [(−)2-chloro-N-(2-(2-methylpyrimidin-5-yl)-2-(piperidin-1-yl)ethyl)benzamide] | 120 nM

Now from value to compound:

Row | IC50 | Structure (SMILES)
16 | 110 nM | Cc1ncc(C(CNC(=O)c2ccccc2Cl)N2CCOCC2)cn1 (single isomer, unassigned; (-)) [(−)2-chloro-N-[2-(2-methylpyrimidin-5-yl)-2-morpholino-ethyl] [(−)2-chloro-N-(2-(2-methylpyrimidin-5-yl)-2-morpholinoethyl)benzamide]
17 | 41 nM | Cc1ncc(C(CNC(=O)c2cccc(F)c2Cl)N2CCCC(F)(F)C2)cn1 (single isomer, unassigned; (-)) [(−)2-chloro-N-[2-(3,3-difluoro-1-piperidyl)-2-(2-methylpyrim] [(−)2-chloro-3-fluoro-N-(2-(3,3-difluoropiperidin-1-yl)-2-(2-methylpyrimidin-5-yl)ethyl)benzamide]
18 | 280 nM | Cc1ncc(C(CNC(=O)c2c(F)cccc2Cl)N2CCCC(F)(F)C2)cn1 (single isomer, unassigned; (-)) [(−)2-chloro-N-[2-(3,3-difluoro-1-piperidyl)-2-(2-methylpyrim] [(−)2-chloro-6-fluoro-N-(2-(3,3-difluoropiperidin-1-yl)-2-(2-methylpyrimidin-5-yl)ethyl)benzamide]
19 | 28 nM | Cc1ncc(C(CNC(=O)c2ccccc2Cl)N2CCCC(F)(F)C2)cn1 (single isomer, unassigned; (-)) [(−)2-chloro-N-[2-(3,3-difluoro-1-piperidyl)-2-(2-methylpyrim] [(−)2-chloro-N-(2-(3,3-difluoropiperidin-1-yl)-2-(2-methylpyrimidin-5-yl)ethyl)benzamide]
20 | 230 nM | Cn1cc(C(CNC(=O)c2ccccc2Cl)N2CCC(F)(F)CC2)cn1 (single isomer, unassigned; (-)) [(−)2-chloro-N-[2-(4,4-difluoro-1-piperidyl)-2-(1-methylpyraz] [(−)2-chloro-N-(2-(4,4-difluoropiperidin-1-yl)-2-(1-methyl-1H-pyrazol-4-yl)ethyl)benzamide]
21 | 36 nM | CCc1ncc(C(CNC(=O)c2c(F)cccc2Cl)N2CCC(F)(F)CC2)cn1 (single isomer, unassigned; (-)) [(−)2-chloro-N-[2-(4,4-difluoro-1-piperidyl)-2-(2-ethylpyrimi] [(−)2-chloro-6-fluoro-N-(2-(4,4-difluoropiperidin-1-yl)-2-(2-ethylpyrimidin-5-yl)ethyl)benzamide]
22 | 17 nM | CCc1ncc(C(CNC(=O)c2ccccc2Cl)N2CCC(F)(F)CC2)cn1 (single isomer, unassigned; (-)) [(−)2-chloro-N-[2-(4,4-difluoro-1-piperidyl)-2-(2-ethylpyrimi] [(−)2-chloro-N-(2-(4,4-difluoropiperidin-1-yl)-2-(2-ethylpyrimidin-5-yl)ethyl)benzamide]
23 | 19 nM | Cc1ncc(C(CNC(=O)c2cccc(F)c2Cl)N2CCC(F)(F)CC2)cn1 (single isomer, unassigned; (-)) [(−)2-chloro-N-[2-(4,4-difluoro-1-piperidyl)-2-(2-methylpyrim] [(−)2-chloro-3-fluoro-N-(2-(4,4-difluoropiperidin-1-yl)-2-(2-methylpyrimidin-5-yl)ethyl)benzamide]
24 | 11 nM | COc1cccc(C(=O)NCC(c2cnc(C)nc2)N2CCC(F)(F)CC2)c1Cl (single isomer, unassigned; (-)) [(−)2-chloro-N-[2-(4,4-difluoro-1-piperidyl)-2-(2-methylpyrim] [(−)2-chloro-3-methoxy-N-(2-(4,4-difluoropiperidin-1-yl)-2-(2-methylpyrimidin-5-yl)ethyl)benzamide]
25 | 32 nM | Cc1ncc(C(CNC(=O)c2c(F)cccc2Cl)N2CCC(F)(F)CC2)cn1 (single isomer, unassigned; (-)) [(−)2-chloro-N-[2-(4,4-difluoro-1-piperidyl)-2-(2-methylpyrim] [(−)2-chloro-6-fluoro-N-(2-(4,4-difluoropiperidin-1-yl)-2-(2-methylpyrimidin-5-yl)ethyl)benzamide]
26 | 40 nM | Cc1ncc(C(CNC(=O)c2cccc(OC(F)(F)F)c2Cl)N2CCC(F)(F)CC2)cn1 (single isomer, unassigned; (-)) [(−)2-chloro-N-[2-(4,4-difluoro-1-piperidyl)-2-(2-methylpyrim] [(−)2-chloro-N-(2-(4,4-difluoropiperidin-1-yl)-2-(2-methylpyrimidin-5-yl)ethyl)-3-(trifluoromethoxy)benzamide]
